Results reported in ChEMBL document CHEMBL3272157, “Cephalosporin derivatives with 2- and 4-pyridone groups at carbon-3” (1979).
Converted amounts (≈) assume the structure as drawn. The source made the active and inactive calls. The rule behind the calls is not given here.

Columns and labels:
Streptococcus pyogenes [1] = assay: In vivo antibacterial activity against Streptococcus pyogenes infected in po dosed albino CD-1 mouse assessed as protection against bacterial infection by measuring host survival administered at 1 hr and 4 hrs after infection; type: functional
Salmonella [2] = assay: In vivo antibacterial activity against Salmonella schottmuelleri infected in sc dosed albino CD-1 mouse assessed as protection against bacterial infection by measuring host survival administered at 1 hr and 4 hrs after infection; type: functional
Streptococcus pyogenes [3] = assay: In vivo antibacterial activity against Streptococcus pyogenes infected in sc dosed albino CD-1 mouse assessed as protection against bacterial infection by measuring host survival administered at 1 hr and 4 hrs after infection; type: functional
Proteus vulgaris = assay: In vitro antibacterial activity against cephalosporins-resistant Proteus vulgaris assessed as growth inhibition after 17 hrs by serial two-fold dilution technique; type: functional, organism-based
Streptococcus pneumoniae = assay: In vitro antibacterial activity against Streptococcus pneumoniae assessed as growth inhibition after 17 hrs by serial two-fold dilution technique; type: functional
Escherichia coli [4] = assay: In vitro antibacterial activity against Escherichia coli assessed as growth inhibition after 17 hrs by serial two-fold dilution technique; type: functional
Enterobacter cloacae = assay: In vitro antibacterial activity against cephalosporins-resistant Enterobacter cloacae assessed as growth inhibition after 17 hrs by serial two-fold dilution technique; type: functional, organism-based
Serratia marcescens = assay: In vitro antibacterial activity against cephalosporins-resistant Serratia marcescens assessed as growth inhibition after 17 hrs by serial two-fold dilution technique; type: functional, organism-based
Escherichia coli [5] = assay: In vivo antibacterial activity against Escherichia coli infected in sc dosed albino CD-1 mouse assessed as protection against bacterial infection by measuring host survival administered at 1 hr and 4 hrs after infection; type: functional
Klebsiella pneumoniae = assay: In vitro antibacterial activity against Klebsiella pneumoniae assessed as growth inhibition after 17 hrs by serial two-fold dilution technique; type: functional
Salmonella [6] = assay: In vitro antibacterial activity against Salmonella schottmuelleri assessed as growth inhibition after 17 hrs by serial two-fold dilution technique; type: functional
[7] = test system: Streptococcus pasteurianus; assay: In vitro antibacterial activity against Streptococcus pasteurianus assessed as growth inhibition after 17 hrs by serial two-fold dilution technique; type: functional
Streptococcus pyogenes [8] = assay: In vitro antibacterial activity against Streptococcus pyogenes assessed as growth inhibition after 17 hrs by serial two-fold dilution technique; type: functional
Pseudomonas aeruginosa = assay: In vitro antibacterial activity against cephalosporins-resistant Pseudomonas aeruginosa assessed as growth inhibition after 17 hrs by serial two-fold dilution technique; type: functional, organism-based
Providencia stuartii = assay: In vitro antibacterial activity against cephalosporins-resistant Providencia stuartii assessed as growth inhibition after 17 hrs by serial two-fold dilution technique; type: functional, organism-based
[9] = test system: Staphylococcus epidermidis; assay: In vitro antibacterial activity against benzylpenicillin-resistant Staphylococcus epidermidis assessed as growth inhibition after 17 hrs by serial two-fold dilution technique; type: functional
Staphylococcus aureus [10] = assay: In vitro antibacterial activity against Staphylococcus aureus assessed as growth inhibition after 17 hrs by serial two-fold dilution technique; type: functional
Staphylococcus aureus [11] = assay: In vitro antibacterial activity against benzylpenicillin-resistant Staphylococcus aureus assessed as growth inhibition after 17 hrs by serial two-fold dilution technique; type: functional
Klebsiella aerogenes = assay: In vitro antibacterial activity against cephalosporins-resistant Enterobacter aerogenes assessed as growth inhibition after 17 hrs by serial two-fold dilution technique; type: functional, organism-based
Proteus mirabilis = assay: In vitro antibacterial activity against Proteus mirabilis assessed as growth inhibition after 17 hrs by serial two-fold dilution technique; type: functional
[12] = test system: Streptococcus pasteurianus; assay: In vivo antibacterial activity against Streptococcus pasteurianus infected in sc dosed albino CD-1 mouse assessed as protection against bacterial infection by measuring host survival administered at 1 hr and 4 hrs after infection; type: functional

SMILES	ED50 (Streptococcus pyogenes [1])	ED50 (Salmonella [2])	ED50 (Streptococcus pyogenes [3])	growth inhibition (GI) (Proteus vulgaris)	MIC (Streptococcus pneumoniae)	MIC (Escherichia coli [4])	growth inhibition (GI) (Enterobacter cloacae)	growth inhibition (GI) (Serratia marcescens)	ED50 (Escherichia coli [5])	MIC (Klebsiella pneumoniae)	MIC (Salmonella [6])	MIC [7]	MIC (Streptococcus pyogenes [8])	growth inhibition (GI) (Pseudomonas aeruginosa)	growth inhibition (GI) (Providencia stuartii)	MIC [9]	MIC (Staphylococcus aureus [10])	MIC (Staphylococcus aureus [11])	growth inhibition (GI) (Klebsiella aerogenes)	MIC (Proteus mirabilis)	other results
N[C@@H](C(=O)N[C@@H]1C(=O)N2C(C(=O)O)=C(Cn3ccc(=O)cc3)CS[C@H]12)c1ccccc1	> 8 mg/kg	5 mg/kg	> 0.5 mg/kg	inactive	100 µg/mL (≈ 227 µM)	12.5 µg/mL (≈ 28.4 µM)	inactive	inactive	4.6 mg/kg	12.5 µg/mL (≈ 28.4 µM)	12.5 µg/mL (≈ 28.4 µM)	0.4 µg/mL (≈ 0.908 µM)	1.6 µg/mL (≈ 3.63 µM)	inactive	inactive	25 µg/mL (≈ 56.8 µM)	3.1 µg/mL (≈ 7.04 µM)	50 µg/mL (≈ 114 µM)	inactive	50 µg/mL (≈ 114 µM)	
CC1=C(C(=O)O)N2C(=O)[C@@H](NC(=O)[C@H](N)c3ccccc3)[C@H]2SC1 [CEPHALEXIN ANHYDROUS]	1.2 mg/kg	8.2 mg/kg	3.4 mg/kg		> 100 µg/mL	6.2 µg/mL (≈ 17.8 µM)			5.6 mg/kg	3.1 µg/mL (≈ 8.92 µM)	6.2 µg/mL (≈ 17.8 µM)	1.6 µg/mL (≈ 4.61 µM)	0.8 µg/mL (≈ 2.3 µM)			12.5 µg/mL (≈ 36 µM)	1.6 µg/mL (≈ 4.61 µM)	6.2 µg/mL (≈ 17.8 µM)		25 µg/mL (≈ 72 µM)	ED50 [12]: 38.7 mg/kg
N[C@@H](C(=O)N[C@@H]1C(=O)N2C(C(=O)O)=C(Cn3ccccc3=O)CS[C@H]12)c1ccccc1	> 8 mg/kg	10 mg/kg	> 0.5 mg/kg	inactive	50 µg/mL (≈ 114 µM)	25 µg/mL (≈ 56.8 µM)	inactive	inactive	8.4 mg/kg	6.2 µg/mL (≈ 14.1 µM)	12.5 µg/mL (≈ 28.4 µM)	0.2 µg/mL (≈ 0.454 µM)	0.8 µg/mL (≈ 1.82 µM)	inactive	inactive	6.2 µg/mL (≈ 14.1 µM)	1.6 µg/mL (≈ 3.63 µM)	6.2 µg/mL (≈ 14.1 µM)	inactive	> 100 µg/mL	ED50 [12]: 14 mg/kg
